Tests used:
MDR1 = conditions: cited from earlier work
[1] = system: Aβ secretion in K269sw cells transfected with human pHaMDR1 construct; test: Aβ secretion from K269sw cells transiently transfected with pHaMDR1 (W0-2 western blot); assay type: cell-based; conditions: RU49953 0.01-1.0 μM, fifteen minutes; FIG. 12
Method: K269sw cells were cultured in 20 mm Falcon dishes in DMEM containing 10% FBS, and […] geneticin (GIBCO) to about 50% confluence and transiently transfected with the human pHaMDR1 construct using the calcium-phosphate precipitation technique as described above. Cells were replated at a density of 2.0×10^6 cells/dish 8 hours post-transfection on 10 cm petri dishes as described above. To assay for transfection efficiency, the β-gal gene was also co-transfected into the cells. β-gal staining was performed to determine the percentage of cells within each dish which were successfully transfected with the cDNA.
Exposures were performed without resuspending the cells. 10 mL of DMEM containing either control (DMSO), PMA (0.1 μM), or RU486 (0.001 μM, 0.01 μM, 0.1 μM, 1.0 μM), were prepared. DMSO concentrations in the medium were normalized to 0.01% (v/v). The supplemented medium was aspirated and 1 mL of the appropriate medium was added to the cells. […] 5 μL from each sample was collected for protein quantification. […]
SDS-PAGE was used to resolve secreted protein on a 16.5% tris-tricine polyacrylamide gel. […] Aβ was visualized using ECL and quantitation was performed as previously described. […]
Exposures were performed without resuspending the cells. […] 5 μL from each sample was collected for protein quantification. […]

CC#C[C@]1(O)CC[C@H]2[C@@H]3CCC4=CC(=O)CCC4=C3[C@@H](c3ccc(N(C)C)cc3)C[C@@]21C [RU49953, 17β-hydroxy-11β, 17α-[4-dimethylaminophenyl]-17α prop-1-ynyl estra-4, 9 dien-3 one]
binding to and block of MDR1 mediated efflux (MDR1): bind to and block
effect on Aβ secretion [1]: reduces Aβ secretion in fifteen minutes in a dose-dependent manner

— patent US6514686B2, “Method and composition for modulating amyloidosis” (The University of British Columbia, priority 1997, dated 2003)
